Measurements taken from ChEMBL document CHEMBL1275518, “Low penetration of oseltamivir and its carboxylate into cerebrospinal fluid in healthy Japanese and Caucasian volunteers” (Antimicrob Agents Chemother, 2008).

Assays:
[1] = Half life in healthy adult plasma assessed as oseltamivir carboxylate at 150 mg, po administered as single dose by LC/MS analysis; format: ADME, organism-based; conditions: human, in vivo
[2] = Apparent oral clearance in healthy adult plasma at 150 mg, po administered as single dose by LC/MS analysis; format: ADME, organism-based; conditions: human
[3] = AUC (0 to last) in healthy adult plasma at 150 mg, po administered as single dose by LC/MS analysis; format: ADME, organism-based; parameters: dose 150 mg, time 0 - last, route oral; conditions: human
[4] = Tmax in healthy adult plasma at 150 mg, po administered as single dose by LC/MS analysis; format: ADME, organism-based; conditions: human
[5] = Cmax in healthy adult plasma assessed as oseltamivir carboxylate at 150 mg, po administered as single dose by LC/MS analysis; format: ADME, organism-based; parameters: dose 150 mg, route oral; conditions: human, in vivo
[6] = Cmax in healthy adult CSF at 150 mg, po administered as single dose by LC/MS analysis; format: ADME, organism-based, Cerebrospinal fluid; parameters: dose 150 mg, route oral; conditions: human
[7] = Tmax in healthy adult CSF at 150 mg, po administered as single dose by LC/MS analysis; format: ADME, organism-based, Cerebrospinal fluid; conditions: human
[8] = Ratio of Cmax in healthy adult CSF to Cmax in healthy adult plasma at 150 mg, po administered as single dose; format: ADME, organism-based; conditions: human
[9] = AUC (0 to last) in healthy adult CSF assessed as oseltamivir carboxylate at 150 mg, po administered as single dose by LC/MS analysis; format: ADME, organism-based, Plasma; parameters: dose 150 mg, route oral, time 0 - last; conditions: human, in vivo
[10] = Tlast in healthy adult CSF at 150 mg, po administered as single dose by LC/MS analysis; format: ADME, organism-based, Cerebrospinal fluid; conditions: human, in vivo
[11] = AUC (0 to last) in healthy adult plasma assessed as oseltamivir carboxylate at 150 mg, po administered as single dose by LC/MS analysis; format: ADME, organism-based; parameters: dose 150 mg, time 0 - last, route oral; conditions: human, in vivo
[12] = Clast in healthy adult plasma assessed as oseltamivir carboxylate at 150 mg, po administered as single dose by LC/MS analysis; format: ADME, organism-based; conditions: human, in vivo
[13] = Clast in healthy adult plasma at 150 mg, po administered as single dose by LC/MS analysis; format: ADME, organism-based; conditions: human, in vivo
[14] = AUC (0 to last) in healthy adult CSF at 150 mg, po administered as single dose by LC/MS analysis; format: ADME, organism-based; parameters: dose 150 mg, route oral, time 0 - last; conditions: human
[15] = Tlast in healthy adult plasma at 150 mg, po administered as single dose by LC/MS analysis; format: ADME, organism-based; conditions: human, in vivo
[16] = Cmax in healthy adult plasma at 150 mg, po administered as single dose by LC/MS analysis; format: ADME, organism-based; parameters: dose 150 mg, route oral; conditions: human
[17] = Ratio of AUC (0 to last) in healthy adult CSF to AUC (0 to last) in healthy adult plasma assessed as oseltamivir carboxylate at 150 mg, po administered as single dose; format: ADME, organism-based; conditions: human
[18] = Clast in healthy adult CSF assessed as oseltamivir carboxylate at 150 mg, po administered as single dose by LC/MS analysis; format: ADME, organism-based, Cerebrospinal fluid; conditions: human, in vivo
[19] = Half life in healthy adult plasma at 150 mg, po administered as single dose by LC/MS analysis; format: ADME, organism-based; conditions: human
[20] = Ratio of AUC (0 to last) in healthy adult CSF to AUC (0 to last) in healthy adult plasma at 150 mg, po administered as single dose; format: ADME, organism-based; conditions: human
[21] = Tlast in healthy adult plasma assessed as oseltamivir carboxylate at 150 mg, po administered as single dose by LC/MS analysis; format: ADME, organism-based; conditions: human, in vivo
[22] = Clast in healthy adult CSF at 150 mg, po administered as single dose by LC/MS analysis; format: ADME, organism-based, Cerebrospinal fluid; conditions: human, in vivo
[23] = Tmax in healthy adult CSF assessed as oseltamivir carboxylate at 150 mg, po administered as single dose by LC/MS analysis; format: ADME, organism-based, Cerebrospinal fluid; conditions: human, in vivo
[24] = AUC (0 to infinity) in healthy adult plasma at 150 mg, po administered as single dose by LC/MS analysis; format: ADME, organism-based; parameters: dose 150 mg, time infinity, route oral; conditions: human
[25] = Tmax in healthy adult plasma assessed as oseltamivir carboxylate at 150 mg, po administered as single dose by LC/MS analysis; format: ADME, organism-based; conditions: human, in vivo
[26] = AUC (0 to infinity) in healthy adult plasma assessed as oseltamivir carboxylate at 150 mg, po administered as single dose by LC/MS analysis; format: ADME, organism-based; parameters: dose 150 mg, time infinity, route oral; conditions: human, in vivo
[27] = Cmax in healthy adult CSF assessed as oseltamivir carboxylate at 150 mg, po administered as single dose by LC/MS analysis; format: ADME, organism-based, Cerebrospinal fluid; parameters: dose 150 mg, route oral; conditions: human, in vivo
[28] = Tlast in healthy adult CSF assessed as oseltamivir carboxylate at 150 mg, po administered as single dose by LC/MS analysis; format: ADME, organism-based, Cerebrospinal fluid; conditions: human, in vivo
[29] = Ratio of Cmax in healthy adult CSF to Cmax in healthy adult plasma assessed as oseltamivir carboxylate at 150 mg, po administered as single dose; format: ADME, organism-based; conditions: human

**Q.** Which t1/2 [1] does the source give for `CCOC(=O)C1=C[C@@H](OC(CC)CC)[C@H](NC(C)=O)[C@@H](N)C1.O=P(O)(O)O` [OSELTAMIVIR PHOSPHATE] here?
**A.** 5.4 h

**Q.** What about the CL/F [2] of the same molecule?
**A.** 8370 mL/min

**Q.** And the AUC(0-t) [3]?
**A.** 308 ng·h/mL

**Q.** What about the Tmax [4] of the same molecule?
**A.** 1 h

**Q.** And the Cmax [5]?
**A.** 544 ng/mL

**Q.** And the Cmax [6]?
**A.** 2.4 ng/mL

**Q.** And the Tmax [7]?
**A.** 3.5 h

**Q.** And the Kp [8]?
**A.** 2.1%

**Q.** And the AUC [9]?
**A.** 157 ng·h/mL

**Q.** What about the Tlast [10] of the same molecule?
**A.** 5.5 h

**Q.** What about the AUC [11] of the same molecule?
**A.** 5540 ng·h/mL

**Q.** What about the Clast [12] of the same molecule?
**A.** 50.2 ng/mL

**Q.** And the Clast [13]?
**A.** 2.1 ng/mL

**Q.** What about the AUC(0-t) [14] of the same molecule?
**A.** 7.6 ng·h/mL

**Q.** What about the Tlast [15] of the same molecule?
**A.** 10.5 h

**Q.** And the Cmax [16]?
**A.** 115 ng/mL

**Q.** What about the Ratio AUC [17] of the same molecule?
**A.** 2.9%

**Q.** And the Clast [18]?
**A.** 14.5 ng/mL

**Q.** What about the half-life [19] of the same molecule?
**A.** 108 min

**Q.** What about the Kp [20] of the same molecule?
**A.** 2.4%

**Q.** And the Tlast [21]?
**A.** 24 h

**Q.** What about the Clast [22] of the same molecule?
**A.** 1.4 ng/mL

**Q.** What about the Tmax [23] of the same molecule?
**A.** 8 h

**Q.** And the AUC(0-inf) [24]?
**A.** 313 ng·h/mL

**Q.** And the Tmax [25]?
**A.** 5 h

**Q.** And the AUC [26]?
**A.** 5950 ng·h/mL

**Q.** What about the Cmax [27] of the same molecule?
**A.** 19 ng/mL

**Q.** And the Tlast [28]?
**A.** 12 h

**Q.** And the Ratio [29]?
**A.** 3.5%
